# Source: patent US11447485B2, “Class of bifunctional compounds with quanternary ammonium salt structure” (Beijing Showby Pharmaceutical Co., Ltd., priority 2016, dated 2022)
# Tests used:
# [1] = system: tracheal smooth muscle of guinea pig; experiment: Relaxation of CCh-induced constriction of isolated guinea pig tracheal smooth muscle (Experimental Example 1); details: in vitro; for Onset time (min) ± SD / Time for eliminating inhibition effect (min): CCh 3 × 10^−6 mol/L; for EC50: Cavia porcellus, constriction induced by CCh 3 × 10^−6 mol/L, read-out: EC50 (μM) ± SD
# [2] = target: T1, human recombinant β1 adrenoceptor (Homo sapiens, UniProt P08588); experiment: cAMP accumulation, human recombinant β1 adrenoceptor; type: cell-based
# T1 construct: expressed in transfected cells
# Experimental: In order to measure the activity and selectivity of agonists to human β1 and β2 adrenoceptors, the cAMP accumulation of expressed receptors in each recombinant cell line was measured. cAMP was determined by homology radioimmunoassay, that is, cells were washed with PSB buffer solution and suspended in the buffer solution at room temperature to grow to 30000-40000 cells per well. The test compound was diluted with PSB buffer solution containing 0.1% BSA and tested at 11 gradient concentrations ranging from 100 uM to 0.1 pM. For the analysis of β1-adrenoceptor, 10 nM of ICI118551 was added to block the expression of β2-adrenoceptor in HEK293 cells. After the compound was added to the suspended cells, the scintillation plate was incubated at 37° C. for 10 minutes, the reaction was terminated with ice-cold detection buffer solution, and its radioactivity was measured after storage at 4° C. overnight.
# The agonistic activity (pEC50 value) was analyzed by regression using S-type dose response model of software package (GraphPad Software, San Diego, Calif.). Selectivity was calculated from the ratio of measured cAMP of β1 and β2 adrenoceptors, which was expressed as sel. β1/β2=(EC50 (β1)/EC50 (β2)).
# [3] = target: human recombinant M1 receptor (Homo sapiens, UniProt P11229); experiment: biochemical; type: binding; details: for M1/M2: Mx/My = Ki(y)/Ki(x)
# [4] = target: human recombinant M3 receptor (Homo sapiens, UniProt P20309); experiment: biochemical; type: binding; details: for M1/M3 / M2/M3: Mx/My = Ki(y)/Ki(x)
# [5] = target: T2, human recombinant β2 adrenoceptor (Homo sapiens, UniProt P07550); experiment: cell-based; type: cell-based; details: for EC50: cAMP accumulation
# T2 construct: expressed in transfected cells
# [6] = target: human recombinant M2 receptor (Homo sapiens, UniProt P08172); experiment: biochemical; type: binding
# [7] = system: M receptor of guinea pig tracheal smooth muscle; experiment: MA activity: guinea pig isolated trachea, propranolol blocks β receptor, CCh constriction; details: Cavia porcellus; propranolol 10^−5 mol/L, CCh 3×10^−6 mol/L
# Experimental: (2) Blocking Effect of Example Compounds on M Receptor of Guinea Pig Tracheal Smooth Muscle
# (§1) Preparation of an isolated tracheal smooth muscle specimen of a guinea pig: same as Experiment Example 1.
# Administration method: After trachea flake was stabilized, propranolol hydrochloride solution with a final concentration of 10^−5 mol/L was added to block β receptor for 10 min, carbachol with a final concentration of 3×10^−6 mol/L was added (observing M receptor antagonism of compound after propranolol blocks β receptor), and administration was started when the pressure value of the trachea flake was increased to a stable platform. The experiments were divided into a blank group, a propranolol+blank group, each test sample administration group and a propranolol+each test sample administration group. DMSO solution prepared by K—H solution and 50 μl of test sample solution were added to each group of the blank group and each test sample administration group respectively. The propranolol+blank group and propranolol+each test sample administration group were added with 50 μl propranolol solution for 10 min respectively, and then added with DMSO solution prepared from K—H solution and 50 μl of test sample solution. The test sample administration group was added with the compounds to be tested with final concentrations of 10^−9, 0.3×10^−8, 10^−8, 0.3×10^−7, 10^−7, 0.3×10^−6 and 10^−6 mol/L at cumulative concentration, and the blank group was added with corresponding diluted DMSO solution. The propranolol+each test sample administration group was added with propranolol for 10 min, and then added with the compounds to be tested with final concentrations of 10^−9, 0.3×10^−8, 10^−8, 0.3×10^−7, 10^−7, 0.3×10^−6 and 10^−6 mol/L at cumulative concentration. After the propranolol+blank group was added with propranolol for 10 min, corresponding diluted DMSO solution was added. Medlab was used to record the relaxation degree of tracheal smooth muscle, finally sodium nitroprusside with a final concentration of […] was added as 100% relaxation.
# [8] = Lung homogenate stability in vitro (human); type: in vitro ADME; details: 8 h, 37° C.
# [9] = system: β2 receptor in guinea pig tracheal smooth muscle; experiment: BA activity: guinea pig isolated trachea pre-treated with histamine; details: Cavia porcellus, read-out: BA (EC50, nM)
# Experimental: (3) The Antagonism of the Example Compounds on β2 Receptor in Guinea Pig Tracheal Smooth Muscle
# as §1
# Administration Method: After the trachea flake was stabilized, histamine solution with a final concentration of 3×10^−5 mol/L was added for 10 min, carbachol with a final concentration of 3×10^−6 mol/L was added (observing β receptor antagonism), and administration was started when the pressure value of the trachea flake was increased to a stable platform. The experiments were divided into a blank group, a histamine+blank group, each test sample administration group and a histamine+each test sample administration group. DMSO solution prepared by K—H solution and 50 μl of test sample solution were added to each group of the blank group and each test sample administration group respectively. The histamine+blank group and histamine+each test sample administration group were added with 50 μl histamine solution for 10 min respectively, then added with DMSO solution prepared by K—H solution and 50 μl test sample solution. The test sample administration group was added with the compounds to be tested with final concentrations of 10^−9, 0.3×10^−8, 10^−8, 0.3×10^−7, 10^−7, 0.3×10^−6 and 10^−6 mol/L at cumulative concentration, and the blank group was added with corresponding diluted DMSO solution. The histamine+each test sample administration group was added with histamine for 10 min, and then added with the test compounds with final concentrations of 10^−9, 0.3×10^−8, 10^−8, 0.3×10^−7, 10^−7, 0.3×10^−6 and 10^−6 mol/L at cumulative concentration. After the histamine+blank group was added with histamine for 10 m, corresponding diluted DMSO solution was added. Medlab was used to record the relaxation degree of smooth muscle of the trachea flake. Finally theophylline with a final concentration of 2×10^−4 mol/L was added as 100% relaxation.
# [10] = Liver microsome metabolic stability in vitro (SD rat); details: SD rat liver microsomes
# Experimental: (§2) The area ratio of the 0 min sample was taken as 100%, and the remaining percentage of the compound after incubation at different times was obtained at each time point by comparison with the sample. With the natural logarithm of this percentage on the ordinate and time on the abscissa, a scatter plot was drawn to simulate a straight line with a negative slope of k. The parameters were calculated according to the formula.
# (§3) Liver weight indicates the liver weight (g) per kilogram of body weight, and P450 indicates the amount (mg) of P450 enzyme per gram of liver.
# [11] = system: guinea pig tracheal smooth muscle (MABA); experiment: MABA activity: relaxation of CCh pre-constricted guinea pig isolated trachea; details: Cavia porcellus; CCh 3×10^−6 mol/L
# Experimental: (1) The Constriction Effect of Tracheal Smooth Muscle of Guinea Pig Induced by the Example Compounds Antagonizing Carbachol (CCh)
# as §1
# Administration Method: After the trachea flake were stabilized, carbachol with a final concentration of 3×10^−6 mol/L was added, and administration was started when the pressure value of the trachea flake was increased to a stable platform. The experiments were divided into blank group and each test sample administration group. DMSO solution prepared from K—H solution and 50 μl of each test sample solution were added to each group respectively. The test sample administration group was added with 10^−9, 0.3×10^−8, 10^−8, 0.3×10^−7, 10^−7, 0.3×10^−6 and 10^−6 mol/L of test compound and control substance at cumulative concentration. The blank group was added with corresponding diluted DMSO solution. Medlab was used to record the relaxation degree of smooth muscle of the trachea flake. Finally, isoproterenol with a final concentration of 10^−5 mol/L was added as 100% relaxation.
# [12] = Lung homogenate stability in vitro (dog); type: in vitro ADME, Beagle dog; details: 8 h, 37° C.
# Experimental: The compounds of the invention were respectively incubated with the lung homogenate of Beagle dogs for 8 hours in a water bath at 37° C., and sample was analysed by LC-MS/MS when the reaction was terminated.
# [13] = system: heart rate of Beagle dogs; experiment: Heart rate changes after iv administration in Beagle dogs; type: in vivo, Beagle dog
# Experimental: Beagle dogs were randomly divided into two groups, half male and half female, and were intravenously injected (iv) with 7.5% ethanol solution of compounds of the invention and control compound. Each compound was set up in two dosage groups of 0.01 mg/kg and 0.10 mg/kg.
# [14] = Liver microsome metabolic stability in vitro (human); details: Human liver microsomes
# Experimental: as §2, §3
# [15] = Liver microsome metabolic stability in vitro (Beagle dog); details: Beagle dog liver microsomes
# Experimental: as §2, §3
# T2 sequence (P07550 whole entry): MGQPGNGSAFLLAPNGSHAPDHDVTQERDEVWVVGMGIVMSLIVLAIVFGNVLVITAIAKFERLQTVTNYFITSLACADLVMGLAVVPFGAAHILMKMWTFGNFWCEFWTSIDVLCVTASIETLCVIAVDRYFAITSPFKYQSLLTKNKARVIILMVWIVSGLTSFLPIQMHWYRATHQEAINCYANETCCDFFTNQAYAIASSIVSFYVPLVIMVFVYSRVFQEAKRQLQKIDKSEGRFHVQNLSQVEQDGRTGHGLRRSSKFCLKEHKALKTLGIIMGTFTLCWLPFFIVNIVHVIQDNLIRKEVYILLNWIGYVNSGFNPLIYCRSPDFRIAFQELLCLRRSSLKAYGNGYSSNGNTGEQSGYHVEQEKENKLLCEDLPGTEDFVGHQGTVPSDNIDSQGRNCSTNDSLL
# human recombinant M3 receptor, sequence (P20309 whole entry): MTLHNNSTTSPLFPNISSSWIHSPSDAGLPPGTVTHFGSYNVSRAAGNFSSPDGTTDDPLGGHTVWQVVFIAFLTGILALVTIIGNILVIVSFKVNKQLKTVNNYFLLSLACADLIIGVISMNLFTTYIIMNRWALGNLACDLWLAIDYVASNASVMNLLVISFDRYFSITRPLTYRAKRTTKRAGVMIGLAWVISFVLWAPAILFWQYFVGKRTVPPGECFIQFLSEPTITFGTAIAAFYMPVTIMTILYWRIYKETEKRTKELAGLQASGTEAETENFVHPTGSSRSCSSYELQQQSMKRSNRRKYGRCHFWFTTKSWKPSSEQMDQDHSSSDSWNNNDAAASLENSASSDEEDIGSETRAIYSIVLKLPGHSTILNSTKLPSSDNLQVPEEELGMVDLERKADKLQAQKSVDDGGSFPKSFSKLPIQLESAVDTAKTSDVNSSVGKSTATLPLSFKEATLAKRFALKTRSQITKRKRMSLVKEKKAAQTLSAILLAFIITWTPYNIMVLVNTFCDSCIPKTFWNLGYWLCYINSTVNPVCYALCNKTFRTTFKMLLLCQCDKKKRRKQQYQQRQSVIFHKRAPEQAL
# human recombinant M1 receptor, sequence (P11229 whole entry): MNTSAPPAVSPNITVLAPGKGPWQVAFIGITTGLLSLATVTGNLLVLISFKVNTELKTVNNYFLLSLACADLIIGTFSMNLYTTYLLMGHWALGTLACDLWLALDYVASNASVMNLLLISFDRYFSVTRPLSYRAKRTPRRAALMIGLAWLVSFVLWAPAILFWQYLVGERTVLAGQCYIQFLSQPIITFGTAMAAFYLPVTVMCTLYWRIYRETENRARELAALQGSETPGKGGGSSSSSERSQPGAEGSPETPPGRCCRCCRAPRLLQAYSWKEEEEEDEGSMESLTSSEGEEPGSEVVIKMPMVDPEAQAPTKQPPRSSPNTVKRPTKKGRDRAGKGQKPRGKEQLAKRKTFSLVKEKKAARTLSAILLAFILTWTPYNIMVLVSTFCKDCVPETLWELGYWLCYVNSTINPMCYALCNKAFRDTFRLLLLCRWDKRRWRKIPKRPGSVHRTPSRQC
# T1 sequence (P08588 whole entry): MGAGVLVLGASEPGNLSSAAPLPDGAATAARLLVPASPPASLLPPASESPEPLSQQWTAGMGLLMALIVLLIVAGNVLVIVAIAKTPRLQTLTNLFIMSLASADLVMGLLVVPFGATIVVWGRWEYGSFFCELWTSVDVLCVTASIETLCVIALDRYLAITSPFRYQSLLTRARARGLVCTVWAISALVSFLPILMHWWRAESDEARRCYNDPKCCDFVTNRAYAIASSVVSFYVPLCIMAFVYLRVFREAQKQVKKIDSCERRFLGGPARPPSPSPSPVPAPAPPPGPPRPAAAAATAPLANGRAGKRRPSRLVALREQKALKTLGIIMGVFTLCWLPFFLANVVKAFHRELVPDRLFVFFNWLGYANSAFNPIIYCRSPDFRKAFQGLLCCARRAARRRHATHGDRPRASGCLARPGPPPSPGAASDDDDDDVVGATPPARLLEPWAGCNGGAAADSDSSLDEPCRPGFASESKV
# human recombinant M2 receptor, sequence (P08172 whole entry): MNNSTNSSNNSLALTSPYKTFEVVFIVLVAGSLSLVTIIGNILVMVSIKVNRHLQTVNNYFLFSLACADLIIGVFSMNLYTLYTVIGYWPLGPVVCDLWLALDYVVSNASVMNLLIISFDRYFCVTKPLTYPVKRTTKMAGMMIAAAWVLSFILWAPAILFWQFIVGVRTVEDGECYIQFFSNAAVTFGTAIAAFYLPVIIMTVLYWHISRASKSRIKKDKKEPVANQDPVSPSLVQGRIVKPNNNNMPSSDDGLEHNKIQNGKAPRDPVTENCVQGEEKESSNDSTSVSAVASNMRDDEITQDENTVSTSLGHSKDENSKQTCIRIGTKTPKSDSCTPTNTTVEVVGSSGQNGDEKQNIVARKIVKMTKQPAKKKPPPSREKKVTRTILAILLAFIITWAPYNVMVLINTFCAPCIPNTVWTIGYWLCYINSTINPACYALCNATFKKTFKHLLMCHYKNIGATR
smiles,measurement,setting,value
"OCc1cc([C@@H](O)CNCCC[N+]23CCC(CC2)[C@@H](OC[C@@](O)(c2ccccc2)C2CCCC2)C3)ccc1O [Compound 1, (R)-(−)-3-[(R)-2-hydroxy-2-cyclopentyl-2-phenyl]ethoxy-1-{3-[(R)-2-(3-hydroxymethyl-4-hydroxy)phenyl-2-hydroxyethylamino]propyl}-1-azabicyclo[2,2,2]octylonium bromide]",Onset time (min) ± SD,[1],6.82 ± 0.30 min
same,Time for eliminating inhibition effect (min),[1],more than 300 min
same,EC50,[1],0.767 ± 0.18 µM
same,EC50,[2],197 ± 87 nM
same,Ki,[3],0.733 ± 0.32 nM
same,M1/M2,[3],1.3206
same,Ki,[4],0.561 ± 0.22 nM
same,M1/M3,[4],0.7653
same,M2/M3,[4],0.5795
same,sel (β1/β2),[5],15.4
same,EC50,[5],12.8 ± 4.2 nM
same,Ki,[6],0.968 ± 0.15 nM
"OCc1cc([C@@H](O)CNCCCC[N+]23CCC(CC2)[C@@H](OC[C@@](O)(c2ccccc2)C2CCCC2)C3)ccc1O [Compound 3, (R)-(−)-3-[(R)-2-hydroxy-2-cyclopentyl-2-phenyl]ethoxy-1-{4-[(R)-2-(3-hydroxymethyl-4-hydroxy)phenyl-2-hydroxyethylamino]butyl}-1-azabicyclo[2,2,2]octylonium bromide]",Onset time (min) ± SD,[1],5.38 ± 0.68 min
same,Time for eliminating inhibition effect (min),[1],more than 300 min
same,EC50,[1],0.355 ± 0.1 µM
same,EC50,[2],160 ± 72 nM
same,Ki,[3],0.767 ± 0.16 nM
same,M1/M2,[3],1.2229
same,Ki,[4],0.451 ± 0.18 nM
same,M1/M3,[4],0.5880
same,M2/M3,[4],0.4808
same,sel (β1/β2),[5],15.6
same,EC50,[5],10.3 ± 2.4 nM
same,Ki,[6],0.938 ± 0.4 nM
O=CNc1cc([C@@H](O)CNCc2c(Cl)cc(OCCC[N+]34CCC(CC3)[C@@H](OC[C@](O)(c3ccccc3)C3CCCC3)C4)cc2Cl)ccc1O.[Br-] [Compound 59],Onset time (min) ± SD,[1],6.53 ± 0.66 min
same,Time for eliminating inhibition effect (min),[1],more than 300 min
same,M1/M2,[3],7.0601
same,M1/M3,[4],0.4629
same,M2/M3,[4],0.0656
same,sel (β1/β2),[5],213.4
CC(NC[C@H](O)c1ccc(O)c(NC=O)c1)c1ccc(OCCC[N+]23CCC(CC2)[C@@H](OC[C@@](O)(c2ccccc2)C2CCCC2)C3)cc1.[Br-] (stereo partly shown) [Compound 94],EC50,[7],43.5 ± 4.2 nM
same,Residual rate after incubation of human lung homogenate (%),[8],91%
same,EC50,[9],33.5 ± 5.7 nM
same,liver extraction rate (ERh),[10],0.94
same,EC50,[11],19.8 ± 5.4 nM
same,Residual rate after incubation of dog lung homogenate (%),[12],96%
same,0.5-4 h area increase under heart rate curve (%),[13]; 0.01 mg/kg iv,−2.8%
same,0.5-4 h area increase under heart rate curve (%),[13]; 0.10 mg/kg iv,4.6%
same,liver extraction rate (ERh),[14],0.93
same,liver extraction rate (ERh),[15],0.94
"O=CNc1cc([C@@H](O)CNCCCOc2ccc(OCCC[N+]34CCC(CC3)[C@@H](OC[C@@](O)(c3ccccc3)C3CCCC3)C4)cc2)ccc1O [Compound 113, (R)-(−)-3-[(R)-2-hydroxy-2-cyclopentyl-2-phenyl]ethoxy-1-{3-[4-(3-{(R)-[2-hydroxy-2-(3-formamido-4-hydroxy)phenyl]ethylamino}propoxy)phenoxy]propyl}-1-azabicyclo[2,2,2]octylonium bromide]",EC50,[7],15.6 ± 2.6 nM
same,Residual rate after incubation of human lung homogenate (%),[8],93%
same,EC50,[9],17.6 ± 1.9 nM
same,liver extraction rate (ERh),[10],0.96
same,EC50,[11],7.2 ± 1.4 nM
same,Residual rate after incubation of dog lung homogenate (%),[12],93%
same,0.5-4 h area increase under heart rate curve (%),[13]; 0.01 mg/kg iv,−3.4%
same,0.5-4 h area increase under heart rate curve (%),[13]; 0.10 mg/kg iv,3.3%
same,liver extraction rate (ERh),[14],0.97
same,liver extraction rate (ERh),[15],0.96
OCc1cc([C@@H](O)CNCCCOc2ccc(OCCC[N+]34CCC(CC3)[C@@H](OC[C@@](O)(c3ccccc3)C3CCCC3)C4)cc2)ccc1O.[Br-] [Compound 122],EC50,[7],56.7 ± 6.6 nM
same,Residual rate after incubation of human lung homogenate (%),[8],95%
same,EC50,[9],36.8 ± 4.1 nM
same,liver extraction rate (ERh),[10],0.97
same,EC50,[11],15.6 ± 3.6 nM
same,Residual rate after incubation of dog lung homogenate (%),[12],92%
same,0.5-4 h area increase under heart rate curve (%),[13]; 0.01 mg/kg iv,6.6%
same,0.5-4 h area increase under heart rate curve (%),[13]; 0.10 mg/kg iv,0%
same,liver extraction rate (ERh),[14],0.93
same,liver extraction rate (ERh),[15],0.98
O=c1ccc2c([C@@H](O)CNCCCOc3ccc(OCCC[N+]45CCC(CC4)[C@@H](OC[C@@](O)(c4ccccc4)C4CCCC4)C5)cc3)ccc(O)c2[nH]1.[Br-] [Compound 131],EC50,[7],30.2 ± 8.1 nM
same,Residual rate after incubation of human lung homogenate (%),[8],90%
same,EC50,[9],9.2 ± 1.6 nM
same,liver extraction rate (ERh),[10],0.93
same,EC50,[11],4 ± 1 nM
same,Residual rate after incubation of dog lung homogenate (%),[12],94%
same,0.5-4 h area increase under heart rate curve (%),[13]; 0.01 mg/kg iv,10%
same,0.5-4 h area increase under heart rate curve (%),[13]; 0.10 mg/kg iv,2.9%
same,liver extraction rate (ERh),[14],0.99
same,liver extraction rate (ERh),[15],0.93
